The values that follow come from EP0216127B1, “6-Phenoxymethyl-4-hydroxytetrahydropyran-2-ones, process for their preparation, their use as medicines, pharmaceutical compositions and intermediates” (HOECHST AKTIENGESELLSCHAFT, priority 1985, dated 1987).

The conditions of assay [1]: an der Ratte; cited from earlier work.
For assay [2] the following is noted: im Humanversuch; cited from earlier work.
The target of assay [3] is T1, HMG-CoA-Reduktase (Rattus norvegicus, UniProt P51639).
T1 construct: solubilisierten Enzympräparationen aus Lebermikrosomen von Ratten; from tissue; host or cells: rat liver microsomes (rats induced with cholestyramine after day-night rhythm shift)
T1 sequence (P51639 1-887): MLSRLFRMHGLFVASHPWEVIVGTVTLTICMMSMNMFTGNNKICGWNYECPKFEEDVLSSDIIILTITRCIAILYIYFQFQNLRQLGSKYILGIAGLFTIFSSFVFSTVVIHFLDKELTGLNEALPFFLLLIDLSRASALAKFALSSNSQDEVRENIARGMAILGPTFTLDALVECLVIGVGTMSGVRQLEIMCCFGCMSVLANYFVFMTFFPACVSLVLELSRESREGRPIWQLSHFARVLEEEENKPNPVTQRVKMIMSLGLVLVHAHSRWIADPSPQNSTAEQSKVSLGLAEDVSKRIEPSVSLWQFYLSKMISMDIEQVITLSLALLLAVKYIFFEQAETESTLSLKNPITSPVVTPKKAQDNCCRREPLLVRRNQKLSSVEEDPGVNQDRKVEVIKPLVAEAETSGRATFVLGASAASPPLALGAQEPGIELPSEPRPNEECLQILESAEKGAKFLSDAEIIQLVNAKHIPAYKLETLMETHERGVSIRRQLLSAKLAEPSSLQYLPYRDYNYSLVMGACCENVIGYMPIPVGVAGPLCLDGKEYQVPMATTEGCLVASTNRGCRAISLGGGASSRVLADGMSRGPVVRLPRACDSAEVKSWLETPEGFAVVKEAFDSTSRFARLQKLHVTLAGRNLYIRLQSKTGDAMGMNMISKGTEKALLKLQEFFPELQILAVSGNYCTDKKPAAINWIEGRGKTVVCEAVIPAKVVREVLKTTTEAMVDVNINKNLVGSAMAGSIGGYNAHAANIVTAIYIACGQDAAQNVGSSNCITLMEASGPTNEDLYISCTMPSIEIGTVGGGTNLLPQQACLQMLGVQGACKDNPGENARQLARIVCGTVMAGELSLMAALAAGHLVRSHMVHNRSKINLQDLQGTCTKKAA
In words: Inhibition of HMG-CoA reductase activity in solubilised enzyme preparations from rat liver microsomes. Type of assay: biochemical, Ratten. The conditions noted are these: solubilised enzyme from liver microsomes of cholestyramine-induced rats; substrate (S,R)14C-HMG-CoA; mean of 3 parallel samples; read-out: IC50-Wert M. From the text:
1) Inhibierung der HMG-CoA-Reduktase-Aktivität an solubilisierten Enzympräparationen aus Ratten-Lebermikrosomen
Die HMG-CoA-Reduktase-Aktivität wurde an solubilisierten Enzympräparationen aus Lebermikrosomen von Ratten gemessen, die nach Umstellung im Tag-Nacht-Rhythmus mit Cholestyramin (@Cuemid) induziert wurden. Als Substrat diente (S,R)^14C-HMG-CoA, die Konzentration von NADPH wurde während der Inkubation durch ein regenerierendes System aufrechterhalten. Die Abtrennung von ^14C-Me- valonat von Substrat und anderen Produkten (z.B. ^14C-HMG) erfolgte über Säulenelution, wobei das Elutionsprofil jeder Einzelprobe ermittelt wurde. Auf die ständige Mitführung von ^3H-Mevalonat wurde verzichtet, weil es bei der Bestimmung um die Relativangabe der Hemmwirkung handelt. In eine Versuchsreihe wurden jeweils die enzymfreie Kontrolle, der enzymhaltige Normalansatz (= 100%) und solche mit Präparatezusätzen zusammen behandelt. Jeder Einzelwert wurde als Mittelwert aus 3 Parallelproben gebildet. Die Signifikanz der Mittelwertsunterschiede zwischen präparatefreien und präparatehaltigen Proben wurde nach dem t-Test beurteilt. Nach der oben beschriebenen Methode wurden von den erfindungsgemäßen Verbindungen z.B. folgende Hemmwerte auf die HMG-CoA-Reduktase ermittelt (IC50-Wert M = molare Konzentration der Verbindung, die für eine 50%ige Hemmung erforderlich ist): […]
(In general: Microsomes from liver hold many membrane-bound enzymes, among them those of drug oxidation.)

Assay [4] has as its target T2, HMG-CoA-Reduktase (Mus musculus, UniProt Q01237).
T2 construct: dann wurde die HMG-CoA-Reduktaseaktivität der Zellen, modifiziert nach Chang et al; endogenous in cells; host or cells: L cells (fibroblasts)
T2 sequence (Q01237 1-887): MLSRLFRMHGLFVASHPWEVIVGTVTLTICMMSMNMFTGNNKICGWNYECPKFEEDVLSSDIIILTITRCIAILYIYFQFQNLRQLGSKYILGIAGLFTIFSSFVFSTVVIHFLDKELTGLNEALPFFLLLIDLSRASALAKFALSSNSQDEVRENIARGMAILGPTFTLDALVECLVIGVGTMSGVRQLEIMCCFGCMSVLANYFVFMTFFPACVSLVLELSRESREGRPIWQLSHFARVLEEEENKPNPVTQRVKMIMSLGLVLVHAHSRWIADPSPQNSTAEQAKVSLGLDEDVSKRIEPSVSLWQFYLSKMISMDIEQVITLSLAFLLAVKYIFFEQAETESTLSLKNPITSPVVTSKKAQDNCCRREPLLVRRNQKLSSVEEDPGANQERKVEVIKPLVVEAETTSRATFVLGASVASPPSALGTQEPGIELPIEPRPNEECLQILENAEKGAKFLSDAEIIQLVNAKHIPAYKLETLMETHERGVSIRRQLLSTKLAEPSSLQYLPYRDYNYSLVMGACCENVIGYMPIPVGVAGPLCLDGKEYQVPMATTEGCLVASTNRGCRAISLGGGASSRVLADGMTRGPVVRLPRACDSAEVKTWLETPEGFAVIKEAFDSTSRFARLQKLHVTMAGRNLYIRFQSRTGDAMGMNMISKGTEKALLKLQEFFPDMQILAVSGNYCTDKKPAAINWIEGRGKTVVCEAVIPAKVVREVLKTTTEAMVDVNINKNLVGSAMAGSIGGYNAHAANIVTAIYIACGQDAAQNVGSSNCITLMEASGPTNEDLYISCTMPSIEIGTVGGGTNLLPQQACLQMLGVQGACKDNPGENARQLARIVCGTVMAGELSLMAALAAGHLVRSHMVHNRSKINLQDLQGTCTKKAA
In words: Suppression or inhibition of HMG-CoA reductase in cell cultures of fibroblasts (L cells). The class given is cell-based. The conditions noted are these: 3 h incubation of confluent L-Zellen in lipoprotein-free medium; molar concentration for 50% inhibition of HMG-CoA reductase activity. From the text: 2. Supprimierung bzw. Inhibierung der HMG-CoA-Reduktase in Zellkulturen von Fibroblasten
Monolayers von Fibroblasten (L-Zellen) in lipoproteinfreiem Nährmedium wurden mit entsprechenden Konzentrationen der Prüfsubstanzen eine bestimmte Zeit (z.B. 3 Stunden) inkubiert, dann wurde die HMG-CoA-Reduktaseaktivität der Zellen, modifiziert nach Chang et al. (J. Biol. Chem. 256, 6174 (1981) bestimmt. Dazu wurden die Zellextrakte mit D, L [^3H]-HMG-CoA inkubiert und das unter der Einwirkung der vorhandenen HMG-CoA-Reduktaseaktivität aus den Zellen gebildete Produkt [3H]-Mevalonat nach Cyclisierung zu [^3H]-Mevalonolacton dünnschichtchromatographisch vom Ausgangsprodukt getrennt und unter Verwendung eines internen Standards von ^14C-Mevalonat die Menge des in der Zeiteinheit gebildeten [3H]-Mevalonats, bezogen auf Zellproteinmenge bestimmt. Die unter Zusatz einer bestimmten Konzentration eines Prüfpräparates gefundene HMG-CoA-Reduktaseaktivität der Zellkultur wurde prozentual auf jene einer gleichbehandelten ohne Prüfpräparat, jedoch gleicher Lösungsmittelkonzentration, bezogen.
Unter der Bedingung einer dreistündigen Inkubationszeit konfluenter L-Zellen im lipoproteinfreien Nährmedium mit den untersuchten Verbindungen wurden folgende für eine 50%ige Hemmung der HMG-CoA-Reduktaseaktivität (ICso) erforderliche molare Konzentration der Prüfpräparate ermittelt: […]

Structures are written as SMILES. Like-named read-outs stand apart in the source and are kept apart here.

On to `CC(O)(CC(=O)O)CC(=O)O` [3-Hydroxy-3-methyl-glutarsäure], for which the “cholesterinsenkende Wirkung” value in assay [1] and in assay [2] was “signifikante cholesterinsenkende Wirkung” in each case. Consider `Cc1cc(Cl)cc(C(c2ccc(F)cc2)c2ccc(F)cc2)c1OC[C@@H]1C[C@@H](O)CC(=O)O1` [44 bb], for which the concentration for half-maximal inhibition (IC50) in assay [3] is 100 nM. In the case of `O=C1C[C@H](O)C[C@@H](COc2c(Cl)cc(Cl)cc2C(CCOc2ccc(F)cc2)c2ccc(F)cc2)O1` (stereo partly drawn) [44 dd], in assay [3], the IC50 turned out to be 150 nM. Still for that read-out and setting: the result for `Cc1cc(C(c2ccc(F)c(C)c2)c2cc(Cl)cc(C)c2OC[C@@H]2C[C@@H](O)CC(=O)O2)ccc1F` [44 hh] reads 50 nM. Regarding `Cc1cc(Cl)cc(CCCOc2ccc(F)cc2)c1OC[C@@H]1C[C@@H](O)CC(=O)O1` [44 i], the figures for the IC50 in assay [3] and in assay [4] were 75 nM and 10000 nM, respectively. `C=CCc1cc(Cl)cc(CCCOc2ccc(F)cc2)c1OC[C@@H]1C[C@@H](O)CC(=O)O1` [44 j]: the IC50 was 460 nM in assay [3] and 100000 nM in assay [4]. Consider `O=C1C[C@H](O)C[C@@H](COc2c(Cl)cc(Cl)cc2CC2CCCCC2)O1` [44 kk], for which the IC50 in assay [3] turned out to be 25 nM.

In the case of `CC(C)(C)C(=O)OCCCc1cc(Cl)cc(CCCOc2ccc(F)cc2)c1OC[C@@H]1C[C@@H](O)CC(=O)O1` [44 l], in assay [3], the IC50 was 7000 nM. On the same count and under the same terms, the value for `Cc1cc(C)c(OC[C@@H]2C[C@@H](O)CC(=O)O2)c(CCc2ccc(F)cc2)c1` [44 m] was 530 nM; that for `O=C1C[C@H](O)C[C@@H](COc2c(Cl)cc(Cl)cc2-c2ccccc2)O1` [44 mm] was 190 nM; that for `O=C1C[C@H](O)C[C@@H](COc2c(Cl)cc(Cl)cc2C(=O)C2CCCCC2)O1` [44 nn] was 190 nM. On to `Cc1cc(C)c(OC[C@@H]2C[C@@H](O)CC(=O)O2)c(C(c2ccc(F)cc2)c2ccc(F)cc2)c1` [44 q], for which the IC50 in assay [3] was 70 nM; in assay [4] it was 50000 nM. Take `Cc1cc(C)c(OC[C@@H]2C[C@@H](O)CC(=O)O2)c(C(C)c2ccc(F)cc2)c1` (stereo partly drawn) [44 r]: the IC50 in assay [3] is 160 nM. For `Cc1cc(C)c(OC[C@@H]2C[C@@H](O)CC(=O)O2)c(Cc2ccc(F)cc2)c1` [44 s], the IC50 in assay [3] is 400 nM.

As for `Cc1cc(C)c(OC[C@@H]2C[C@@H](O)CC(=O)O2)c(CCOc2ccc(F)cc2)c1` [44 t], the IC50 in assay [3] amounted to 500 nM. The same measure, in the same setting: the result for `Cc1cc(C)c(OC[C@@H]2C[C@@H](O)CC(=O)O2)c(C(CC(C)C)c2ccc(F)cc2)c1` (stereo partly drawn) [44 u] reads 140 nM.

As to `COc1ccc(C(c2ccc(F)cc2)c2cc(C)cc(C)c2OC[C@@H]2C[C@@H](O)CC(=O)O2)cc1` (stereo partly drawn) [44 v], the IC50 in assay [3] is 100 nM; in assay [4], 40000 nM. Taken in the same sequence, the figures for `Cc1cc(Cl)cc(CCCOc2ccc(Cl)cc2)c1OC[C@@H]1C[C@@H](O)CC(=O)O1` [44 x] were 50 nM and 14000 nM. In the same order, the values of `Cc1cc(Cl)cc(CC2CCCCC2)c1OC[C@@H]1C[C@@H](O)CC(=O)O1` [44 y] are 75 nM and 15000 nM. For the compound `Cc1cc(C)c(OC[C@@H]2C[C@@H](O)CC(=O)O2)c(CC2CCCCC2)c1` [44 z], the IC50 in assay [3] came to 100 nM.

Usually IC50 stands for the concentration that inhibits the measured activity by half.
